Consider 21 compounds from ChEMBL document CHEMBL1201862, “PubChem BioAssay data set” (2004).

Each structure is given as a SMILES string. The source made the active and inactive calls.

Experiment [1] addresses Cytochrome P450 2C19 (Homo sapiens, UniProt P33261). As to the kind of experiment: Cytochrome panel assay with activity outcomes. Panel member name: p450-cyp2c19 Compounds with AC50 equal or less than 10 uM are considered active. Type of experiment: functional. Particulars: read-out: AC50.
For experiment [2], the system named is BJ. Description: cells. It is filed as functional, cell-based, Homo sapiens. To be noted: Homo sapiens, BJ.
In experiment [3] the test system is BJ. Description: BJ-TERT-LT-ST fibroblast viability loss – cell-based, RAS-independent, luminescence, dose response (AID 1935).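 Note: BJ fibroblasts immortalized with TERT plus LT and ST oncogenes.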 To be noted: Homo sapiens. Type of experiment: functional.
The test system of experiment [4] is BJ. As to the kind of experiment: BJ-TERT fibroblast viability loss – cell-based, RAS-independent, luminescence, dose response (AID 1933). Type of experiment: functional. To be noted: Homo sapiens.
Experiment [5] in a line: DRD fibroblast viability loss – cell-based, non-viral oncogenic, luminescence, dose response (AID 1934). Particulars: Homo sapiens. Type of experiment: functional.
For experiment [6], the target named is Cytochrome P450 3A4 (Homo sapiens, UniProt P08684). To be noted: Potency.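 Note: confirmatory qHTS run detecting inhibitors and substrates of CYP3A4.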
The test system of experiment [7] is INS1. As to the kind of experiment: INS-1E survival protection against cytokine death – cell-based, luminescence, retest, dose response (AID 449756).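 Note: cell death triggered by IL-1 beta plus TNF-alpha plus IFN-gamma mixture; protective hits raise ATP signal compared with cytokine alone wells.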 Particulars: Rattus norvegicus. It is filed as functional.
The target in experiment [8] is T1, Short transient receptor potential channel 4 (Mus musculus, UniProt Q9QUQ5).
T1 sequence (Q9QUQ5 whole entry): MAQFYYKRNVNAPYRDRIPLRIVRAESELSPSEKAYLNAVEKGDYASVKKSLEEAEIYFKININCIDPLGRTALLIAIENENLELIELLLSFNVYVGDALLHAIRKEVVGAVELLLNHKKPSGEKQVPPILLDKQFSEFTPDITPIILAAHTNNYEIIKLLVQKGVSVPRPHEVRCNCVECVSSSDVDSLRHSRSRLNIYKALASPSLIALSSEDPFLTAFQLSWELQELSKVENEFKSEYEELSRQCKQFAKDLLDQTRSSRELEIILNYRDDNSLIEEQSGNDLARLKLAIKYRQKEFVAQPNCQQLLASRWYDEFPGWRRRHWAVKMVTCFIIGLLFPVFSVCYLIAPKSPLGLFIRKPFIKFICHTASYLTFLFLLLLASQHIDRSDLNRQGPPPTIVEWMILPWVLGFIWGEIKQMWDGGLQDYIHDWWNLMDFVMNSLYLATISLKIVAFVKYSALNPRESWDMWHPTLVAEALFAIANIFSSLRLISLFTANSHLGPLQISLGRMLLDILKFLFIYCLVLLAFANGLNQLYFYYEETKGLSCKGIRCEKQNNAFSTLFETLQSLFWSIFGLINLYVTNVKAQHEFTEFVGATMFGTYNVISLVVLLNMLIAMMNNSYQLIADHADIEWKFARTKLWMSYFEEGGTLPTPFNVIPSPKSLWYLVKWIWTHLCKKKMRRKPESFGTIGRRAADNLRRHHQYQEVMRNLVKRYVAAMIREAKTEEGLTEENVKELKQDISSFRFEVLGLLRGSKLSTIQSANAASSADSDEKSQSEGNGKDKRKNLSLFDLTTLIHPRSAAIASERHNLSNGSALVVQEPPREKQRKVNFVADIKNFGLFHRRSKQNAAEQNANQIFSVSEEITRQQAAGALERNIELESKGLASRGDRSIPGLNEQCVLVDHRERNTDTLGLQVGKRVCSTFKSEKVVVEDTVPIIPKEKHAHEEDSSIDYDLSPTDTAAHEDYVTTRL
As to the kind of experiment: calcium entry via TRPC4 opening agents – cell-based, HEK293 TRPC4/mu-opioid, Fluo-4 calcium, dose response (AID 434937). It is filed as functional.

The target of experiment [9] is T1, Short transient receptor potential channel 4. Description: block of DAMGO-driven TRPC4 calcium entry – cell-based, HEK293 TRPC4/mu-opioid, Fluo-4 calcium, dose response (AID 434942).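 Note: potency of inhibitors blocking the TRPC4 calcium response.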 It is filed as functional.
Experiment [10] has as its target T2, Replicative DNA helicase DnaB (Mycobacterium tuberculosis, UniProt P9WMR3).
T2 sequence (P9WMR3 whole entry): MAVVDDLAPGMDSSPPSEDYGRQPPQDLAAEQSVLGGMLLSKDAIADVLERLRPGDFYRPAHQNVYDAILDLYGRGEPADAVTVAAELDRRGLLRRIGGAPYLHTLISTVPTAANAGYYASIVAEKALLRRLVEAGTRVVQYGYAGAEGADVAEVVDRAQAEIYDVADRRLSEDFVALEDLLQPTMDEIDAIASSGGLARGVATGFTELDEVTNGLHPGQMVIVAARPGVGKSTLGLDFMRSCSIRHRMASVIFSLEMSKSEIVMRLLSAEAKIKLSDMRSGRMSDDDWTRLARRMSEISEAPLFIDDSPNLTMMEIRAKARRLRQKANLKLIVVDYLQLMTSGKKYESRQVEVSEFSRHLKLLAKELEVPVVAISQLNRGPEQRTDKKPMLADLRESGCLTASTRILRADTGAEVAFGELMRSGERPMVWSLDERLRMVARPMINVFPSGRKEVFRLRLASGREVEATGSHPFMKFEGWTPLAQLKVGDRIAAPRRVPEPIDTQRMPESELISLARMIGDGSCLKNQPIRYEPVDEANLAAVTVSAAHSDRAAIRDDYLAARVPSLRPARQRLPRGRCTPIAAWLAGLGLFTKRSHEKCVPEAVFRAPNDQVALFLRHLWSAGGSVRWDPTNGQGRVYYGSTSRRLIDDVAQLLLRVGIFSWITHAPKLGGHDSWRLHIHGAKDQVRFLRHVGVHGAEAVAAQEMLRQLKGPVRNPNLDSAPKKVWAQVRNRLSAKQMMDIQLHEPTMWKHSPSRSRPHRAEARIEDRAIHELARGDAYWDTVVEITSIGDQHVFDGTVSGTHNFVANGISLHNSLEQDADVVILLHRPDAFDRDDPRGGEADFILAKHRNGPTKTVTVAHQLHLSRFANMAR
As to the kind of experiment: DnaB intein splicing inhibitors, dose response, biochemical, cell-free fluorescence (AID 449749). It is filed as functional.

The target of experiment [11] is T3, Protein RecA (Mycobacterium tuberculosis, UniProt P9WHJ3).
T3 sequence (P9WHJ3 whole entry): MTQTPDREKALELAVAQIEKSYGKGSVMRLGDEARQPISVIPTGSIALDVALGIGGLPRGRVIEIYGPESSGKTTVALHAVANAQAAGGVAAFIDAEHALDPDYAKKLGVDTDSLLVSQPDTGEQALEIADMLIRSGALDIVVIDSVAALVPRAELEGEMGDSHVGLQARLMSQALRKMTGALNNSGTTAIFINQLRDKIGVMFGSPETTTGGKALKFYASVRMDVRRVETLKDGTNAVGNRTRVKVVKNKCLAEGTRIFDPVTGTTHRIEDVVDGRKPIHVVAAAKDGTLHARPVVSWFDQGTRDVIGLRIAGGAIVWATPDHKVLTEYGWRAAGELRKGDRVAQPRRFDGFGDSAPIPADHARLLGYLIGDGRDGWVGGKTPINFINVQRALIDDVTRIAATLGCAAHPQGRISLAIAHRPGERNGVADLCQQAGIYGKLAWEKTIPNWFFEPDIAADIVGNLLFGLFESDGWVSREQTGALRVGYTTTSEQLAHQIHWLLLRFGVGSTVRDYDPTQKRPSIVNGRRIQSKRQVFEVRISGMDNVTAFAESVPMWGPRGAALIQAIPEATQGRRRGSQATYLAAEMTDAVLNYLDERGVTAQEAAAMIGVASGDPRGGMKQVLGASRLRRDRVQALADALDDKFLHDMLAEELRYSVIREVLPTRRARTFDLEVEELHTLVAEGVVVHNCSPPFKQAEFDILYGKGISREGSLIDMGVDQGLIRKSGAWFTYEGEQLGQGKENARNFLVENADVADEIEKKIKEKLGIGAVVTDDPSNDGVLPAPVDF
Description: Fluorescence Cell-Free Homogeneous Dose Retest to Identify Inhibitors of RecA-Intein Splicing Activity. [Related pubchem assays (depositor defined):AID2097, AID2223, AID489010, AID492950]. It is filed as functional.

Experiment [12] deals with T4, Polyadenylate-binding protein 1 (Homo sapiens, UniProt P11940). Description: MLLE domain peptide-binding blockers, IC50 – biochemical, fluorescence polarization, FITC-PAM2 peptide, dose response (AID 602259). Type of experiment: functional. To be noted: read-out: IC50_Mean.
The target of experiment [13] is T4, Polyadenylate-binding protein 1. As to the kind of experiment: MLLE binding blockers, Cy5 peptide tracer – biochemical, fluorescence polarization, Cy5-PAM2 peptide, secondary, miRNA deadenylation inhibitor project, dose response (AID 602260). It is filed as functional. Particulars: read-out: IC50_Mean. On the technique in general: In fluorescence polarisation assays a small probe gives low polarisation when free and higher when bound to something large.

Experiment [14] is described as follows: intracellular Trypanosoma cruzi inhibitors in host cells – cell-based, plate reader, cherry-pick samples, set 3, dose response (AID 651818).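 Note: compounds incubated with infected cells for about four days.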 It is filed as functional.

Cytochrome P450 3A4, sequence (P08684 whole entry): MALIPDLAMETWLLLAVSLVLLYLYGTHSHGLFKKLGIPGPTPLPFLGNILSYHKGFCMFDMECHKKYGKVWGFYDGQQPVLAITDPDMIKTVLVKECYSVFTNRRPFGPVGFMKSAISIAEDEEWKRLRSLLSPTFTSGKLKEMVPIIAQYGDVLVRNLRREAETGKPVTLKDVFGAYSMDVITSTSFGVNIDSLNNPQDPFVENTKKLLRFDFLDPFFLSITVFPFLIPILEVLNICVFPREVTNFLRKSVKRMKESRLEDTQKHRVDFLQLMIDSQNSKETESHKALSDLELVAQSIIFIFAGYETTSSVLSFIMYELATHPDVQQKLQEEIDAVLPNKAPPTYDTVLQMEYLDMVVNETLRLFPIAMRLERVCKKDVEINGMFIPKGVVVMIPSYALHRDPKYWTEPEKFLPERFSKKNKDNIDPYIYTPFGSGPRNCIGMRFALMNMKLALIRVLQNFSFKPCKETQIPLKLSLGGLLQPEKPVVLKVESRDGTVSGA
T4 sequence (P11940 whole entry, the tested form may be a part): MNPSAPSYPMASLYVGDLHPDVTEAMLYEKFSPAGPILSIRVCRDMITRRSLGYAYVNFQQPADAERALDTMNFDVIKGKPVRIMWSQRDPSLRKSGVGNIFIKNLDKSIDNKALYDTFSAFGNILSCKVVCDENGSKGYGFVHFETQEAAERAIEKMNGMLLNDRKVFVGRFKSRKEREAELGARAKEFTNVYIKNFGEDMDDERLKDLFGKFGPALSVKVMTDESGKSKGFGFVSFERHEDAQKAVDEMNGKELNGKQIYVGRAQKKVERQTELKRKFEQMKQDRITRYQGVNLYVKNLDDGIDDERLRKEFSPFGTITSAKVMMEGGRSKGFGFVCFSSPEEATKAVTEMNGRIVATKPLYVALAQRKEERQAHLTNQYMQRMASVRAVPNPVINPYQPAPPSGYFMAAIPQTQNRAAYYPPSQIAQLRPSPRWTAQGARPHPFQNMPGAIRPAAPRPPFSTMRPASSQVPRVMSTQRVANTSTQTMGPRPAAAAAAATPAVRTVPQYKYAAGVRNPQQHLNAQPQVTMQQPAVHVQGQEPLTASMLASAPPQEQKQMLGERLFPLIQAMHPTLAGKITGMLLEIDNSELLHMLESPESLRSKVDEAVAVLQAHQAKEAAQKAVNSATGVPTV
Cytochrome P450 2C19, sequence (P33261 whole entry): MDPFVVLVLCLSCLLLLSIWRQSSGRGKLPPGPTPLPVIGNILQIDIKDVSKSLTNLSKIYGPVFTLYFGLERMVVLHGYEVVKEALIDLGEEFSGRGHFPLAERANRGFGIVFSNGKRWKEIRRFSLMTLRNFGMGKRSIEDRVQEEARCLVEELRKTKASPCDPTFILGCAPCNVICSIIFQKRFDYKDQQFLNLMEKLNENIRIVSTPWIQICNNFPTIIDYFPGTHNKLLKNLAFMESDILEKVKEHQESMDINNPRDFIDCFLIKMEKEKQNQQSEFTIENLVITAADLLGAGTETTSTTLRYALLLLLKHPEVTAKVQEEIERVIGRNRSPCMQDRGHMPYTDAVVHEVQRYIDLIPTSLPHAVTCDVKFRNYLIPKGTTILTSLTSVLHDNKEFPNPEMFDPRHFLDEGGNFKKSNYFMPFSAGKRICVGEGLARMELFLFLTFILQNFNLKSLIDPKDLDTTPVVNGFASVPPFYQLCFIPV

As for `COc1ccc(-c2nc(-c3cccc(C)c3)nc(N3CCN(C)CC3)c2C#N)cc1`, in experiment [1], the AC50 (in general, the midpoint of the concentration-response curve, whichever way the signal moves) is 20 µM (inconclusive). In addition, the EC50 (in general, the concentration that produces a half-maximal response) in [2] was 23.3 µM (active); in experiment [3], > 150 µM (not active); in [4], 16.5 µM (inconclusive); in [5], 14.8 µM (inconclusive).

Turning to `FC(F)(F)c1ccc(CN2C[C@@H]3C(c4ccc(C(F)(F)F)cc4)C4(c5cccnc5)CC3(C4)[C@H]2c2ccccc2)cc1` (stereo partly drawn), the concentration at half-maximal activity (AC50) is 31.6 µM (inconclusive) in experiment [6] and 6.2 µM (active) in [7].

For `CC(=O)OCC1OC(Oc2cc(OC(C)=O)c3c(=O)cc(-c4ccc(OC(C)=O)cc4)oc3c2)[C@@H](OC(C)=O)C(OC(C)=O)C1OC(C)=O` (stereo partly drawn), the concentration at half-maximal activity (AC50) in [6] is 10 µM (inconclusive).

For `CCOC(=O)C1(CC2CC2)CCN(Cc2c[nH]nc2-c2ccccc2)CC1`, the EC50 was 1.33 µM (active) in experiment [8] and 0.944 µM (active) in experiment [9].

Turning to `CCCCNc1nc(C)nc2c1nc(-c1ccccc1)n2CC1CCN(C)CC1`, the half-maximal activity concentration (AC50) in experiment [6] was 15.8 µM (inconclusive).

With `Nc1cc(N2CCCCC2)c([N+](=O)[O-])cc1Cl`, the 50% effective concentration (EC50) in experiment [9] is 5.31 µM (active).

Consider `Cc1ccn2c(CNCCCn3cccn3)c(C(=O)N3CCCCCC3)nc2c1`, for which the concentration for a half-maximal effect (EC50) in experiment [9] was 2.11 µM (active).

Take `Cc1cccc(CN2CCCC(C(=O)Nc3ccccc3Oc3cccnc3)C2)c1` (stereo not drawn): the EC50 in [9] was 4.22 µM (active).

As for `CC1(C)C(O)C=C[C@@]2(C)C1CC(=O)O[C@@]1(C)C3=CC(=O)OC(c4ccoc4)[C@]3(C)CCC21` (stereo partly drawn), in [6], the AC50 was 2 µM (inconclusive).

Consider `COC(=O)C/N=C1/OC(=O)N2C(=O)C3=C4[C@@H](C[C@H]5C(=O)N(c6ccccc6)C(=O)[C@H]5[C@H]4[C@@]12Cc1ccccc1)[C@H]1C(=O)N(c2ccccc2)C(=O)[C@H]1[C@H]3C`, for which the AC50 in [6] is 6.31 µM (inconclusive).

On to `CCCn1c(-c2ccc(F)cc2)nc2c(NCCCN(CCO)CCO)nc(C)nc21`, for which the concentration at half-maximal activity (AC50) in [6] was 15.8 µM (inconclusive).

Turning to `CCOC(=O)c1ccc(Nc2sc(C(=O)c3cccc([N+](=O)[O-])c3)c(N)c2C#N)cc1`, the EC50 in experiment [2] was 92.4 µM (inconclusive); in experiment [3] it was 97.4 µM (active); in experiment [4], > 150 µM (not active); in [5] it was 136 µM (inconclusive).

Take `Cc1nn(C(=O)CNS(=O)(=O)c2ccccc2)c(C)c1Sc1ccc(Cl)cc1`: in experiment [10], the AC50 was 4.2 µM (active). The EC50 is 17.2 µM (active) in experiment [11] and 1.33 µM (active) in experiment [9].

On to `Cc1ccc(N(CC(=O)NC2CCCC2)C(=O)CNC(=O)c2cccs2)cc1F`, for which, in [9], the EC50 was 5.96 µM (active).

As for `CCCCCN1C2=NCCN2c2ccccc21`, the EC50 in experiment [9] was 0.841 µM (active).

In the case of `O=CNc1ccc2c3c(cccc13)-c1ccccc1-2`, the IC50 in [12] was 37.1 µM (inactive); in [13] it was 33.1 µM (inactive).

On to `C[C@@H]1CN([C@H](C)CO)C(=O)c2cccc(NC(=O)CCCCCC(=O)Nc3ccccc3N)c2O[C@H]1CN(C)Cc1ccc(-c2ccccc2)cc1`, for which, in experiment [14], the half-maximal activity concentration (AC50) was 2.18 µM (active).

With `C[C@@H]1CN([C@@H](C)CO)C(=O)c2cc(NS(=O)(=O)c3ccccc3)ccc2O[C@H]1CN(C)Cc1ccc(C(=O)Nc2ccccc2N)cc1`, the concentration at half-maximal activity (AC50) in [14] was 4.83 µM (active).

As to `Cc1ccc(S(=O)(=O)Nc2ccc3c(c2)CC(=O)N([C@H](C)CO)C[C@@H](C)[C@@H](CN(C)S(=O)(=O)c2ccccc2)O3)cc1`, the half-maximal activity concentration (AC50) in experiment [14] was 2.27 µM (active).

As for `C[C@@H]1CN([C@H](C)CO)C(=O)c2cccc(NC(=O)C3CCCCC3)c2O[C@H]1CN(C)Cc1ccc(C(F)(F)F)cc1`, the AC50 in experiment [14] was 2.83 µM (active).

Consider `CCCc1nc(C(C)(C)O)c(C(=O)OCc2oc(=O)oc2C)n1Cc1ccc(-c2ccccc2-c2nnn[nH]2)cc1` [OLMESARTAN MEDOXOMIL], for which the AC50 in [6] was 25.1 µM (inconclusive).
